Reference: patent US5981489A, “Non-aqueous protic peptide formulations” (Alza Corporation, priority 1997, dated 1999)
Each block holds one molecule with its values, some of them ahead of it.

Columns and labels:
Type in all cases: physicochemical
[1] = Gelation of non-aqueous protic solvent formulations on adding polar aprotic solvent
Source text: Thus, these solvents have an anti-gellant effect.

[2] = Stability of nafarelin formulations, one month at 37° C., RP-HPLC
Description: (§1) Stability samples were analyzed using RP-HPLC. The area under the curve for the leuprolide peak divided by the sum of the areas under the curve of all peaks gave % purity. [It should be noted that the data for % concentration presented with the % purity data (Examples 6, 8, 9 and 10) are inconclusive. The analysis methods used to determine % concentration in these experiments were unreliable.]
Formulations of 15% (w/w) nafarelin in either PEG 600 or propylene glycol were prepared as described above for leuprolide and placed in polymeric containers.
The containers were stored at 37° C. for one month in an incubator.
The samples were analyzed using RP-HPLC to determine the chemical stability of the aged formulations.

[3] = Stability of goserelin formulations, one month at 37° C., RP-HPLC; details: for % CONCENTRATION: method called unreliable
Description: as §1
Formulations of 40-45% (w/w) goserelin in either PEG 600 or PG/acetate buffer (30:70) were prepared as described above and placed in polymeric containers. The containers were stored at 37° C. for one month in an incubator. The samples were analyzed using RP-HPLC to determine the chemical stability of the aged formulations.

[4] = 15% (w/w) in vehicle PEG 600, one month at 37° C.
[5] = 15% (w/w) in vehicle PG, one month at 37° C.
[6] = 40-45% (w/w) in vehicle PEG 600, one month at 37° C.
[7] = 40-45% (w/w) in vehicle PG/Acetate Buffer(30:70), one month at 37° C.

effect of adding polar aprotic solvents such as DMSO on gelation of the formulation [1]: prevents gelation
Molecule: CCNC(=O)[C@@H]1CCCN1C(=O)[C@H](CCCNC(=N)N)NC(=O)[C@H](CC(C)C)NC(=O)[C@@H](CC(C)C)NC(=O)[C@H](Cc1ccc(O)cc1)NC(=O)[C@H](CO)NC(=O)[C@H](Cc1c[nH]c2ccccc12)NC(=O)[C@H](Cc1c[nH]cn1)NC(=O)[C@@H]1CCC(=O)N1 [leuprolide]

% CONCENTRATION [2, 4]: 15.8% | % PURITY [2, 4]: 99.4% | % CONCENTRATION [2, 5]: 12.9% | % PURITY [2, 5]: 99.4%
Molecule: CC(C)C[C@H](NC(=O)[C@@H](Cc1ccc2ccccc2c1)NC(=O)[C@H](Cc1ccc(O)cc1)NC(=O)[C@H](CO)NC(=O)[C@H](Cc1c[nH]c2ccccc12)NC(=O)[C@H](Cc1c[nH]cn1)NC(=O)[C@@H]1CCC(=O)N1)C(=O)N[C@@H](CCCNC(=N)N)C(=O)N1CCC[C@H]1C(=O)NCC(N)=O [nafarelin]

effect of adding polar aprotic solvents such as DMSO on gelation of the formulation [1]: prevents gelation
Molecule: calcitonin

effect of adding polar aprotic solvents such as DMSO on gelation of the formulation [1]: prevents gelation | % PURITY [3, 6]: 99.3% | % CONCENTRATION [3, 6]: 23.6% | % PURITY [3, 7]: 98.2% | % CONCENTRATION [3, 7]: 49.7%
Molecule: CC(C)C[C@H](NC(=O)[C@@H](COC(C)(C)C)NC(=O)[C@H](Cc1ccc(O)cc1)NC(=O)[C@H](CO)NC(=O)[C@H](Cc1c[nH]c2ccccc12)NC(=O)[C@H](Cc1cnc[nH]1)NC(=O)[C@@H]1CCC(=O)N1)C(=O)N[C@@H](CCCNC(=N)N)C(=O)N1CCC[C@H]1C(=O)NNC(N)=O [goserelin]
